Measured values taken from patent publication US20110045101A1, “FUNGICIDAL SUBSTITUTED AZOLES” (E.I. Du Pont De Nemours and Company, priority 2009, published 2011).
Marks after values point to notes of the source that are not given here.

What was measured:
Assay type in all cases: in vivo
Conditions in all cases: 100 = 100% disease control
[1] = system: Septoria nodorum; test: Test F: wheat glume blotch on wheat seedlings, sprayed the day before inoculation, visual disease rating
In short: (§1)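 Ratings reflect a 200 ppm spray (≈500 g/ha) unless marked as 40 ppm. Plants were sprayed to run-off. The spray suspension was acetone/purified water 50/50 containing 250 ppm Trem 014, after first dissolving compound in acetone at 3% of final volume.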

[2] = system: Alternaria solani; test: Test D: tomato early blight, sprayed the day before inoculation, visual disease rating
In short: as §1

[3] = system: Botrytis cinerea; test: Test C: tomato Botrytis on tomato seedlings, sprayed the day before inoculation, visual disease rating
In short: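 Disease scored by eye on tomato seedlings inoculated with Botrytis cinerea a day after treatment. Treatment was a run-off spray at 200 ppm (equivalent to 500 g/ha), or 40 ppm where marked, in acetone/water carrying 250 ppm Trem 014.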

[4] = system: Puccinia recondita f. sp. tritici; test: Test H: wheat leaf rust, test suspension sprayed after inoculation of wheat seedlings, visual disease rating
In short: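 Wheat seedlings inoculated with P. recondita spores, held 24 h saturated at 20 °C, then 2 days in growth chamber at 20 °C; compound suspension (acetone/water with Trem 014) sprayed to run-off afterwards. Rated visually; 200 ppm (≈500 g/ha) unless marked *, which denotes 40 ppm.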

[5] = system: Erysiphe graminis f. sp. tritici; test: Test J: wheat powdery mildew on wheat seedlings, sprayed the day before inoculation, visual disease rating
In short: as §1

[6] = system: Septoria tritici; test: Test G: wheat leaf blotch on wheat seedlings, sprayed the day before inoculation, visual disease rating
In short: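 Compounds dissolved in acetone (3% of final volume), then suspended in 50/50 acetone/water with 250 ppm Trem® 014 and sprayed to run-off on seedlings at 200 ppm (≈500 g/ha) or 40 ppm where marked. Inoculation with spores followed next day; visual rating after 48 h saturated at 24° C plus 19 days at 20° C.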

[7] = system: Puccinia recondita f. sp. tritici; test: Test I: wheat leaf rust on wheat seedlings, sprayed the day before inoculation, visual disease rating
In short: as §1

[8] = 200 ppm, 0 = no control relative to controls

Row | SMILES | Test F disease control rating [1, 8] | Test D disease control rating [2, 8] | Test C disease control rating [3, 8] | Test H disease control rating [4, 8] | Test J disease control rating [5, 8] | Test G disease control rating [6, 8] | Test I disease control rating [7, 8] | Test F disease control rating ([1]; 40 ppm (marked *)) | Test D disease control rating ([2]; 40 ppm (marked *)) | Test C disease control rating ([3]; 40 ppm (marked *)) | Test H disease control rating ([4]; 40 ppm (marked *)) | Test J disease control rating ([5]; 40 ppm (marked *)) | Test G disease control rating ([6]; 40 ppm (marked *)) | Test I disease control rating ([7]; 40 ppm (marked *))
1 | COc1ccc(F)c(-c2c(Cl)nc(C)n2-c2ccc(Br)cc2)c1F [compound 582] | 99% | 100% | 100% | 15% | 100% | 97% | 99% | – | – | – | – | – | – | –
2 | Fc1cc(F)c(-c2c(Cl)ncn2-c2cccc(OC(F)F)c2)c(F)c1 [compound 584] | 0% | 99% | 99% | 0% | 99% | 98% | 100% | – | – | – | – | – | – | –
3 | Fc1cc(F)c(-c2c(Cl)ncn2-c2ccc(OC(F)F)cc2)c(F)c1 [compound 585] | 0% | 99% | 100% | 0% | 99% | 100% | 100% | – | – | – | – | – | – | –
4 | Fc1cc(F)c(-c2c(Cl)ncn2-c2cccc(OC(F)(F)F)c2)c(F)c1 [compound 586] | 0% | 0% | 0% | 0% | 21% | 3% | 0% | – | – | – | – | – | – | –
5 | Fc1cc(F)c(-c2c(Cl)ncn2-c2ccc(OC(F)(F)F)cc2)c(F)c1 [compound 587] | 0% | 80% | 25% | 7% | 97% | 97% | 0% | – | – | – | – | – | – | –
6 | COc1cc(F)c(-c2c(Cl)nc(C)n2-c2cccc(OC(F)F)c2)c(F)c1 [compound 588] | 100% | 100% | 100% | 100% | 100% | 97% | 100% | – | – | – | – | – | – | –
7 | COc1cc(F)c(-c2c(Cl)nc(C)n2-c2cccc(OC(F)(F)F)c2)c(F)c1 [compound 589] | 98% | 99% | 100% | 97% | 100% | 98% | 100% | – | – | – | – | – | – | –
8 | COc1ccc(F)c(-c2c(Cl)nc(C)n2-c2ccc(C)c(F)c2)c1F [compound 590] | – | – | – | – | – | – | – | 94* % | 100* % | 100* % | 7* % | 100* % | 96* % | 100* %
9 | Fc1cccc(F)c1-c1c(Cl)nc(Cl)n1-c1ccccc1 [compound 591] | 0% | 100% | 100% | 96% | 98% | 97% | 98% | – | – | – | – | – | – | –
10 | Fc1cccc(F)c1-c1c(Cl)nc(Cl)n1-c1ccc(Cl)nc1 [compound 592] | 100% | 100% | 100% | 100% | 100% | 96% | 100% | – | – | – | – | – | – | –
11 | Fc1cc(-n2c(Cl)nc(Cl)c2-c2c(F)cncc2F)ccc1Cl [compound 593] | 99% | 100% | 100% | 99% | 100% | 96% | 100% | – | – | – | – | – | – | –
12 | Fc1cc(-n2cnc(Cl)c2-c2c(F)cncc2F)ccc1Cl [compound 594] | 0% | 99% | 100% | 78% | 100% | 94% | 99% | – | – | – | – | – | – | –
13 | COc1cc(F)c(-n2nnc(C)c2-c2ccc(Cl)cc2)c(F)c1 [compound 595] | 0% | 80% | 100% | 22% | 98% | 96% | 74% | – | – | – | – | – | – | –
14 | COc1ccc(F)c(-c2c(Cl)nc(Br)n2-c2ccc(C#N)cc2)c1F [compound 596] | 0% | 73% | 94% | 0% | 97% | 98% | 74% | – | – | – | – | – | – | –
15 | Fc1cc(F)c(-c2c(Cl)nc(Cl)n2-c2ccc(OC(F)F)cc2)c(F)c1 [compound 598] | 100% | 100% | 100% | 99% | 100% | 99% | 100% | – | – | – | – | – | – | –
16 | Fc1cc(F)c(-c2c(Cl)nc(Cl)n2-c2cccc(OC(F)(F)F)c2)c(F)c1 [compound 599] | 0% | 0% | 26% | 0% | 0% | 9% | 0% | – | – | – | – | – | – | –
17 | Fc1cc(F)c(-c2c(Cl)nc(Cl)n2-c2ccc(OC(F)(F)F)cc2)c(F)c1 [compound 600] | 0% | 100% | 86% | 7% | 99% | 94% | 0% | – | – | – | – | – | – | –
18 | COc1cc(F)c(-c2c(Cl)nc(C)n2-c2ccc(C)c(Cl)c2)c(F)c1 [compound 601] | – | – | – | – | – | – | – | 87* % | 98* % | 99* % | 7* % | 97* % | 99* % | 97* %
19 | Cc1nc(Br)c(-c2c(F)cccc2F)n1-c1ccc2c(c1)OCCO2 [compound 602] | – | – | – | – | – | – | – | 0* % | 91* % | 99* % | 0* % | 81* % | 99* % | 98* %
20 | Fc1cc(F)c(-c2c(Cl)nc(Br)n2-c2cccc(OC(F)F)c2)c(F)c1 [compound 603] | 99% | 100% | 99% | 98% | 100% | 99% | 100% | – | – | – | – | – | – | –
21 | Fc1cc(F)c(-c2c(Cl)nc(Br)n2-c2ccc(OC(F)F)cc2)c(F)c1 [compound 604] | 100% | 100% | 99% | 97% | 100% | 99% | 100% | – | – | – | – | – | – | –
22 | Fc1cc(F)c(-c2c(Cl)nc(Br)n2-c2cccc(OC(F)(F)F)c2)c(F)c1 [compound 605] | 0% | 0% | 19% | 0% | 94% | 73% | 0% | – | – | – | – | – | – | –
23 | Fc1cc(F)c(-c2c(Cl)nc(Br)n2-c2ccc(OC(F)(F)F)cc2)c(F)c1 [compound 606] | 0% | 100% | 99% | 0% | 100% | 99% | 28% | – | – | – | – | – | – | –
24 | COc1cc(F)c(-c2c(Cl)nc(Br)n2-c2ccc(C)c(C#N)c2)c(F)c1 [compound 607] | – | – | – | – | – | – | – | 31* % | 96* % | 100* % | 7* % | 82* % | 99* % | 86* %
25 | Cc1nc(Cl)c(-c2c(F)cccc2F)n1-c1ccc2c(c1)OC(F)(F)O2 [compound 608] | – | – | – | – | – | – | – | 0* % | 0* % | 17* % | 7* % | 0* % | 4* % | 41* %
